In paper PMC6150379, “Novel Triazole Hybrids of Betulin: Synthesis and Biological Activity Profile” (Molecules : A Journal of Synthetic Chemistry and Natural …, 2017):
≈ marks a conversion by molar mass, not a printed value.

Key:
[1] = tested on: T47D (human ductal carcinoma); test: Cytotoxic activity, WST-1 assay; format: cell-based; conditions: for IC50 / IC50 ± SD: 72 h, Neg = negative in the concentration used; for potency relative to cisplatin: ratio of IC50 values
[2] = tested on: MCF-7 (human adenocarcinoma); test: Cytotoxic activity, WST-1 assay; format: cell-based; conditions: MCF-7, 72 h, Neg = negative in the concentration used
SNB-19 (glioblastoma) = test: Cytotoxic activity, WST-1 assay; format: cell-based, human; conditions: SNB-19, 72 h, Neg = negative in the concentration used
[3] = tested on: Colo-829 (human malignant melanoma); test: Cytotoxic activity, WST-1 assay; format: cell-based; conditions: Colo-829, 72 h, Neg = negative in the concentration used
[4] = tested on: C-32 (human amelanotic melanoma); test: Cytotoxic activity, WST-1 assay; format: cell-based; conditions: C-32, 72 h, Neg = negative in the concentration used
[5] = tested on: cytopathogenic bovine orphan virus (ECBO) strain LCR-4; test: Time of addition assay (post-adsorption), CPE/MTT in A549 cells; format: cell-based, cytopathogenic bovine orphan virus (BEV-1); conditions: for EC50: A549; for SI: selectivity index, ratio of CC50 to EC50, ECBO in A549 cells
in vitro = conditions: human
Description: The cytotoxic effect of compounds on A549 cells was determined by the MTT method, as previously described [36]. The MTT assay is the enzyme-based method, which use the 3-(4,5-dimethylthiazol-2-yl)-2,5-diphenyltetrazolium bromide as a reductive coloring agent. Briefly, subconfluent monolayers of A549 cells (2 × 10^4 cell/well in Dulbecco’s Minimal Essential Medium (DMEM) supplemented with 5% fetal bovine serum (FBS), antibiotics (100 U/mL penicillin and 100 μg/mL streptomycin), and 2 mM L-glutamine (all from Sigma Aldrich, St. Louis, MO, USA) were incubated in 96-multi-well plates in the presence of dilutions of the compounds ranging from 100 μg/mL to 0.5 μg/mL, in triplicate for 48 h at 37 °C in a humidified atmosphere with 5% CO2. After 48 h, 20 μL of MTT solution (Promega, Madison, WI, USA) was added to each well, and the microplates were kept at 37 °C/5% CO2 for 3 h. Then, the solubilization/stop solution containing SDS-HCl (100 μL/well) was added, and the absorbance values of the wells were measured at 570 nm using a 96-well plate reader (Multiskan RC spectrophotometer, Thermo Labsystems, Waltham, MA, USA). Cell viability (%) was calculated for each concentration as Abs treated/Abs control × 100, where Abs treated and Abs control are the absorbance readings for the wells with and without the tested compounds, respectively. The 50% cytotoxic concentration (CC50) was defined as the concentration that reduced cell viability by 50% with respect to controls without drugs. The CC50 value was calculated from the corresponding dose–response curves.

[6] = tested on: SKOV-3 human ovarian cancer cell line; test: Inhibition of tumor cell proliferation (MTT); conditions: SK-OV-3, 96 h, read-out: Max. Inhibition (% of Control)
Description: Antiproliferative activities of the compounds were measured by the MTT assay using A549 cells and a human ovarian cancer cell line SKOV-3 (adenocarcinoma ATCC® HTB77™). A total of 2 × 10^3 cells in DMEM medium supplemented with 5% FBS were placed in each well of a 96-well flat-bottom plate. After 24 h of incubation at 37 °C in 5% CO2, the growth medium was replaced by media containing different concentrations of the derivatives. Control cultures received cisplatin 0.1–10 μg/mL, and blank wells contained 100 μL of growth medium with no cells. After 96 h of incubation, cell proliferation was determined by the colorimetric MTT assay (570 nm) reading for each concentration compared with the control. At least three replicates for each sample were used to determine the cell proliferation.

| SMILES | IC50 ([1]; Homo sapiens) | IC50 ([2]; Homo sapiens, MCF7) | IC50 (SNB-19 (glioblastoma); Homo sapiens) | IC50 ([3]; Homo sapiens) | melting point | IC50 ± SD [1] | IC50 ± SD [2] | IC50 ± SD [4] | other results |
| --- | --- | --- | --- | --- | --- | --- | --- | --- | --- |
| C=C(C)C1CC[C@]2(COC(=O)c3cn(CSc4ccccc4)nn3)CC[C@]3(C)C(CCC4[C@@]5(C)CC[C@H](OC(=O)c6cn(CSc7ccccc7)nn6)C(C)(C)C5CC[C@]43C)C12 (some centres unmarked) [Compound 6d, 3,28-O,O’-Di[(1-phenylthiomethyl-1H-1,2,3-triazol-4-yl)carbonyl]betulin] | 0.9 ± 0.05 µM | 0.9 ± 0.08 µM | 0.5 ± 0.02 µM | 103 ± 4.7 µM | 127 to 131 °C | – | – | – | IC50 ([4]; Homo sapiens): 100 ± 2.8 µM |
| C=C(C)C1CC[C@]2(COC(=O)c3cn(CC(N)C(=O)O)nn3)CC[C@]3(C)C(CCC4[C@@]5(C)CC[C@H](O)C(C)(C)C5CC[C@]43C)C12 (some centres unmarked) [Compound 5j, 2-Amino-3-[4-(28-O-betulinylcarbonyl)-1H-1,2,3-triazol-1-yl]propanoic acid] | – | – | – | 3.3 ± 1.1 µM | 265 to 269 °C | total decay of cytotoxic activity and Neg | Neg | Neg | EC50 [5]: 5 µg/mL (≈ 8 µM); SI [5]: 20.0; IC50 ± SD (SNB-19 (glioblastoma)): Neg; CC50 at 48 h (in vitro): 100 µg/mL (≈ 160 µM); inhibition at 10 µg/mL [6]: 40% |
| C=C(C)C1CC[C@]2(COC(=O)c3cn(Cc4ccc(F)cc4)nn3)CC[C@]3(C)C(CCC4[C@@]5(C)CC[C@H](OC(=O)c6cn(Cc7ccc(F)cc7)nn6)C(C)(C)C5CC[C@]43C)C12 (some centres unmarked) [Compound 6b, 3,28-O,O’-Di[1-(4-fluorobenzyl-1H-1,2,3-triazol-4-yl)carbonyl]betulin] | 0.05 ± 0.01 µM | 0.09 ± 0.01 µM | 0.08 ± 0.01 µM | – | 155 to 158 °C | – | – | Neg | potency relative to cisplatin [1]: 500 fold; IC50 ± SD [3]: Neg |
| C=C(C)C1CCC2(COC(=O)c3cn(C4OC(CO)C(O)C(O)C4O)nn3)CCC3(C)C(CCC4C5(C)CCC(OC(=O)c6cn(C7OC(CO)C(O)C(O)C7O)nn6)C(C)(C)C5CCC43C)C12 [Compound 6f, 3,28-O,O’-Di[1-(1-deoxy-β-D-glucopyranosyl-1H-1,2,3-triazol-4-yl)carbonyl]betulin] | – | – | – | – | – | total decay of cytotoxic effect and Neg | total decay of cytotoxic effect and Neg | total decay of cytotoxic effect and Neg | EC50 [5]: 5 µg/mL (≈ 5.22 µM); SI [5]: 20.0; IC50 ± SD (SNB-19 (glioblastoma)): total decay of cytotoxic effect and Neg; IC50 ± SD [3]: total decay of cytotoxic effect and Neg; CC50 at 48 h (in vitro): 100 µg/mL (≈ 104 µM) |
| C=C(C)C1CC[C@]2(COC(=O)c3cn(CC(=O)OCC)nn3)CC[C@]3(C)C(CCC4[C@@]5(C)CC[C@H](O)C(C)(C)C5CC[C@]43C)C12 (some centres unmarked) [Compound 5g, 28-O-(1-Ethylacetyl-1H-1,2,3-triazol-4-yl)carbonylbetulin] | 135 ± 2.6 µM | – | 92.3 ± 0.9 µM | 11.4 ± 0.2 µM | 176 to 181 °C | – | Neg | Neg | – |
| C=C(C)C1CC[C@]2(COC(=O)c3cn(C(C(=O)O)C(C)C)nn3)CC[C@]3(C)C(CCC4[C@@]5(C)CC[C@H](O)C(C)(C)C5CC[C@]43C)C12 (some centres unmarked) [Compound 5k] | 7.2 ± 0.2 µM | 37.2 ± 0.7 µM | 6.3 ± 0.9 µM | 8.7 ± 0.5 µM | 293 to 297 °C | – | – | – | IC50 ([4]; Homo sapiens): 46.9 ± 2.5 µM |
| C=C(C)C1CC[C@]2(COC(=O)c3cn(Cc4ccccc4)nn3)CC[C@]3(C)C(CCC4[C@@]5(C)CC[C@H](O)C(C)(C)C5CC[C@]43C)C12 (some centres unmarked) [Compound 5a, 28-O-(1-Benzyl-1H-1,2,3-triazol-4-yl)carbonylbetulin] | 10.5 ± 0.09 µM | 58.8 ± 1.5 µM | 96.2 ± 1.2 µM | 78.5 ± 8.3 µM | 169 to 171 °C | – | – | Neg | inhibition at 25 µg/mL [6]: 40% |
| C=C(C)C1CC[C@]2(COC(=O)c3cn(Cc4ccc(F)cc4)nn3)CC[C@]3(C)C(CCC4[C@@]5(C)CC[C@H](O)C(C)(C)C5CC[C@]43C)C12 (some centres unmarked) [Compound 5b, 28-O-[1-(4-Fluorobenzyl)-1H-1,2,3-triazol-4-yl]carbonylbetulin] | 8.5 ± 0.02 µM | – | 66.1 ± 0.7 µM | 129 ± 7.7 µM | 144 to 147 °C | – | Neg | Neg | inhibition at 10 µg/mL [6]: 40% |
| C=C(C)C1CCC2(COC(=O)c3cn(C4CC(n5cc(C)c(=O)[nH]c5=O)OC4CO)nn3)CCC3(C)C(CCC4C5(C)CCC(OC(=O)c6cn(C7CC(n8cc(C)c(=O)[nH]c8=O)OC7CO)nn6)C(C)(C)C5CCC43C)C12 (centres unmarked) [Compound 6e, 3,28-O,O’-Di[1-(3′-deoxythymidine-5′-yl-1H-1,2,3-triazol-4-yl)carbonyl]betulin] | – | – | – | – | 224 to 227 °C | total decay of cytotoxic effect and Neg | total decay of cytotoxic effect and Neg | total decay of cytotoxic effect and Neg | IC50 ± SD (SNB-19 (glioblastoma)): total decay of cytotoxic effect and Neg; IC50 ± SD [3]: total decay of cytotoxic effect and Neg |
| C=C(C)C1CC[C@]2(COC(=O)c3cn(Cc4ccccc4)nn3)CC[C@]3(C)C(CCC4[C@@]5(C)CC[C@H](OC(=O)c6cn(Cc7ccccc7)nn6)C(C)(C)C5CC[C@]43C)C12 (some centres unmarked) [Compound 6a, 3,28-O,O’-Di[(1-benzyl-1H-1,2,3-triazol-4-yl)carbonyl]betulin] | – | – | 24.4 ± 1.3 µM | 80.7 ± 1.8 µM | 117 to 120 °C | Neg | Neg | Neg | – |
| C=C(C)C1CC[C@]2(COC(=O)c3cn(CC(=O)OCC)nn3)CC[C@]3(C)C(CCC4[C@@]5(C)CC[C@H](OC(=O)c6cn(CC(=O)OCC)nn6)C(C)(C)C5CC[C@]43C)C12 (some centres unmarked) [Compound 6g, 3,28-O,O’-Di-[(1-ethylacetyl-1H-1,2,3-triazol-4-yl)carbonyl]betulin] | – | – | – | 97.6 ± 3.3 µM | – | Neg | Neg | Neg | IC50 ± SD (SNB-19 (glioblastoma)): Neg |
| N.N.[Cl][Pt][Cl] [Cisplatin, reference compound] | – | – | – | – | – | – | – | – | IC50 [1]: 24.9 ± 1.1 µM; IC50 [2]: 5.5 ± 1 µM; IC50 (SNB-19 (glioblastoma)): 2.3 ± 0.05 µM; IC50 [3]: 16.8 ± 1.7 µM; IC50 [4]: 12.3 ± 2.1 µM |
| C=C(C)C1CC[C@]2(COC(=O)c3cn(Cc4ccc(C#N)cc4)nn3)CC[C@]3(C)C(CCC4[C@@]5(C)CC[C@H](O)C(C)(C)C5CC[C@]43C)C12 (some centres unmarked) [Compound 5c, 28-O-[1-(4-Cyanobenzyl)-1H-1,2,3-triazol-4-yl]carbonylbetulin] | 1.4 ± 0.01 µM | – | 0.7 ± 0.08 µM | 9.7 ± 0.1 µM | 225 to 228 °C | – | Neg | Neg | – |
| C=C(C)C1CC[C@]2(COC(=O)c3cn(CCCN)nn3)CC[C@]3(C)C(CCC4[C@@]5(C)CC[C@H](O)C(C)(C)C5CC[C@]43C)C12 (some centres unmarked) [Compound 5i, 28-O-[1-(3-Aminopropyl)-1H-1,2,3-triazol-4-yl]carbonylbetulin] | 3.63 ± 0.3 µM | 6.94 ± 0.8 µM | 0.9 ± 0.03 µM | 0.6 ± 0.13 µM | 156 to 160 °C | – | – | – | IC50 ([4]; Homo sapiens): 7.9 ± 0.9 µM |
| C=C(C)C1CC[C@]2(COC(=O)c3cn(Cc4ccc(C#N)cc4)nn3)CC[C@]3(C)C(CCC4[C@@]5(C)CC[C@H](OC(=O)c6cn(Cc7ccc(C#N)cc7)nn6)C(C)(C)C5CC[C@]43C)C12 (some centres unmarked) [Compound 6c, 3,28-O,O’-Di[1-(4-cyanobenzyl-1H-1,2,3-triazol-4-yl)carbonyl]betulin] | 1.1 ± 0.01 µM | 60.7 ± 0.6 µM | 0.06 ± 0.01 µM | – | – | – | – | Neg | IC50 ± SD [3]: Neg |
| C=C(C)C1CC[C@]2(COC(=O)c3cn(CCCO)nn3)CC[C@]3(C)C(CCC4[C@@]5(C)CC[C@H](O)C(C)(C)C5CC[C@]43C)C12 (some centres unmarked) [Compound 5h, 28-O-[1-(3-Hydroxypropyl)-1H-1,2,3-triazol-4-yl]carbonylbetulin] | 1.3 ± 0.05 µM | 15.5 ± 1.1 µM | 9.9 ± 0.7 µM | 6.2 ± 0.6 µM | – | – | – | – | EC50 [5]: 0.5 µg/mL (≈ 0.839 µM); SI [5]: 55.5; potency relative to cisplatin [1]: 19 fold; IC50 ([4]; Homo sapiens): 80.3 ± 5.8 µM; CC50 at 48 h (in vitro): 27.7 µg/mL (≈ 46.5 µM) |
| C=C(C)C1CCC2(COC(=O)c3cn(C4OC(CO)C(O)C(O)C4O)nn3)CCC3(C)C(CCC4C5(C)CCC(O)C(C)(C)C5CCC43C)C12 [Compound 5f, 28-O-[1-(1-Deoxy-β-D-glucopyranosyl)-1H-1,2,3-triazol-4-yl]carbonylbetulin] | – | – | – | 110 ± 7.2 µM | 184 to 186 °C | total decay of cytotoxic activity and Neg | Neg | Neg | EC50 [5]: 5 µg/mL (≈ 7.14 µM); SI [5]: 20.0; IC50 ± SD (SNB-19 (glioblastoma)): Neg; CC50 at 48 h (in vitro): 100 µg/mL (≈ 143 µM); inhibition at 25 µg/mL [6]: 35% |
| C=C(C)C1CC[C@]2(COC(=O)c3cn(CSc4ccccc4)nn3)CC[C@]3(C)C(CCC4[C@@]5(C)CC[C@H](O)C(C)(C)C5CC[C@]43C)C12 (some centres unmarked) [Compound 5d, 28-O-(1-Phenylthiomethyl-1H-1,2,3-triazol-4-yl)carbonylbetulin] | 52.5 ± 1.4 µM | – | 13 ± 0.09 µM | 100 ± 5.5 µM | 143 to 146 °C | – | Neg | Neg | inhibition at 10 µg/mL [6]: 40% |
